Data set [1] has as its system ARPE-19 cells. The data set is described as follows: Complement mediated cell death assay on RPE cells in the context of oxidative stress (cell protection assay, NIH clinical collection library screen). Format: cell-based. To be noted: for protection against cell death mediated by complement attack and oxidative stress: versus vehicle (DMSO). How it is done:
ARPE-19 cells were plated at sub confluence in 96 well culture plates and cultured 24 to 48 hrs. The cells were then treated with 1:1000 dilution of each compound from the NIH clinical collection library overnight. The following day culture media was collected and set aside. The cells were washed and then treated with 0.77 mM H2O2 in hanks buffered saline solution (HBSS) for 90 minutes in the presence of fresh compound from NIH clinical collection library at a 1:1000 dilution. Cells were then washed and primed with a solution of HBSS containing 24% S-58 for 30 minutes. After the priming step cells were washed and then treated with 6% C1q deficient human serum in the original cell culture supernatant collected prior to H2O2 treatment. 90 minutes after addition of the human serum cells were labeled with the membrane impermeant nuclear dye SYTOX® orange and the number of positive cells determined. This count was then used to determine level of cell death. Quantitation and imaging were accomplished by capturing a single field per objective using a 10× objective and then counting the number of positive nuclei using metamorph image analysis software. Data was collected and expressed as % protection relative to wells containing vehicle alone (DMSO).
Data was collected and the level of protection by each compound determined by averaging the results of two independent experiments. FIG. 4 is the distribution of results indexed to compound plate (y-axis) and Protection (x-axis). […] FIG. 5 contains a list of compounds with protective properties. Of the 17 compounds selected, six compounds (Zeranol, Penciclovir, Rifapentine, Rifaximin, calcitrol, 3-[3,5-DIBROMO-4-HYDROXYBENZOYL]-2-ETHYLBENZOFURAN) were deemed to function as anti-oxidants in the assay. Of the remaining 11 compounds, four fall into a single class associated with modulation of the arachidonic acid pathway. This included Zileuton, Zafirlukast, Montelukast, and Loxoprofen. […] The targeting was both direct at 5-lipoxygenase (Zileuton) and indirect at the leukotiene receptor (Zafirlukast, Montelukast).
The observation that inhibition of 5-lipoxygenase is protective against the combined effects of oxidative stress and complement attack in ARPE-19 cells prompted us to test the 5 lipoxygenase activating protein inhibitor MK886 for its ability to protect ARPE-19 cells from oxidative stress and complement attack in vitro. The cell protection assay was carried out essentially as described in Examples 1-4.
In addition to the MK886 inhibitor we also evaluated other know 5-lipoxygenase inhibitors, including 2-TEDC and monocyclin, for their ability to protect ARPE-19 cells against oxidative stress and complement attack, using the cell protection assay described in Examples 1-4.

Data set [2] relates to Balb/c mice. The data set is described as follows: Blue light induced retinal damage, outer nuclear layer histology scoring. Format: in vivo. To be noted: 1 mg/Kg PO BID 14 days; blue light 4800 lux 8 hours. The procedure:
Balb/c mice were dosed orally (PO) at 1 mg/Kg starting 16 hours prior to blue light, and then BID for the next 14 days. Control animal received an equivalent volume of vehicle (0.5% Avicel R-91 and 0.1% Tween-80 in dH2O) to compound treated animals.
Animals were first dark adapted for 16 hours prior to blue light. Animals were then exposed to blue light at 4800 lux for 8 hours. Animals were then moved to normal housing conditions.
Eyes were immersion fixed over night at room temperature in Davidson's Fix special (BBC Biochemical, Mt Vernon, Wash.), dehydrated for 1 hr in 50% EtOH at room temperature, and then placed into 70% EtOH at room temperature. Eyes were stored in 70% EtOH until subjected to automated paraffin processing. After processing, eyes were embedded in paraffin, sectioned on a rotary microtome at 5 μm thickness through the optic nerve head parallel to the vertical meridian, and mounted on glass slides. Sections were baked onto slides, subjected to automated H&E staining, and coverslipped using permanent mounting medium. Stained tissue sections were then examined by an observed blinded to treatment regiments and scored to determine the level of damage to the outer nuclear layer.

The subject of data set [3] is Balb/c mice. Nature of the data set: Blue light induced retinal damage, ERG. Format: in vivo. The conditions noted are these: 1 mg/Kg PO BID 14 days; ERG 2 weeks post blue light; p<0.05. An excerpt:
To further explore the protective effects of inhibition of the 5-lipoxygenase pathway, we examined the ability of 5-lipoxygenase inhibition in two in vivo models. The first in vivo model was a model of retinal oxidative stress induced by intravitreal injection of Paraquat in SOD1−/+ animals (Dong, A., et al., Superoxide dismutase 1 protects retinal cells from oxidative damage. J Cell Physiol, 2006. 208(3): p. 516-26). In addition to elevation of oxidative stress Paraquat is also known to induce activation of complement (Sun, S., et al. (2011 Mar. 18) “Complement Inhibition Alleviates Paraquat-Induced Acute Lung Injury” Am J Respir Cell Mol Biol. EPub), allowing us to examine effects of oxidative stress and complement activation in vivo similar to that observed in the in vitro RPE assay, above. The second in vivo model in which we examined the effects of 5-lipoxygenase inhibition was a rodent light induced retinal degeneration model. […]
The ERG was performed 2 weeks post blue light (4 days post OCT to allow for cataracts to clear). […] The ERG was then recorded with the animal on a heating pad (takes 7-8 minutes). Animals were revived by administration of 0.5 mg/kg atipamezole (injected i.p.), returned to their cages, and warmed using a heating pad and monitored until awake.

Another data set deals with T1, 5-lipoxygenase (Homo sapiens, UniProt P09917).
T1 sequence (P09917 1-674): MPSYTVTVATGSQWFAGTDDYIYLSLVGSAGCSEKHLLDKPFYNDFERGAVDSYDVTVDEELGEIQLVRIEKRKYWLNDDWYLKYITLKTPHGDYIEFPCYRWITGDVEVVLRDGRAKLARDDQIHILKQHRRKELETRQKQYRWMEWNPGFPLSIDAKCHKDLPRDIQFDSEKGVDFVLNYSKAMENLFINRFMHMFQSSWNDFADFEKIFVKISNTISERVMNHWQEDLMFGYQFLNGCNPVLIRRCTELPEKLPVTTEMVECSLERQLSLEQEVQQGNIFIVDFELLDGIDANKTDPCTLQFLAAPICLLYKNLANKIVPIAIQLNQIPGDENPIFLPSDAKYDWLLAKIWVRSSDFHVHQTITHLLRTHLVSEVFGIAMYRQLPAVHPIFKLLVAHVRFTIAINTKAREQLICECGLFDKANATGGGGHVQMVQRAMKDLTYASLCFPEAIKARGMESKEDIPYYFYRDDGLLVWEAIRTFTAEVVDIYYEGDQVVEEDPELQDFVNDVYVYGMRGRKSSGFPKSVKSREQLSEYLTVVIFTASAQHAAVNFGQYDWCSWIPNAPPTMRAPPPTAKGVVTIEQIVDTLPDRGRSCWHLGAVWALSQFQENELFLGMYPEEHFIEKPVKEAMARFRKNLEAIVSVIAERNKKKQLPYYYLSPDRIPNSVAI
The conditions noted are these: read-out: known I.C.50 inhibition of 5-lipoxygenase; Cho et al., J Med Chem 1991; cited from earlier work.

The test system of data set [4] is ARPE-19 cells. Nature of the data set: Oxidative stress followed by challenge with complement, cell death. Format: cell-based. The conditions noted are these: then challenge with complement. An excerpt: Oxidative stress and complement activation are the two most highly cited factors associated with occurrence and progression of AMD. To examine functional consequences of this relationship we treated ARPE-19 cells with either H2O2 or t-BH followed by challenge with complement. […] FACS analysis of ARPE-19 after treatment with t-Bh or H2O2 indicated minimal impact in expression levels (FIG. 3B).

Molecules are shown by their SMILES. “Also recorded” adds a separate entry of the source.

Regarding `c1ccc2c(c1)SCc1c-2[nH]c2ccccc12` [PD146176, 6,11-dihydro-[1]benzothiopyrano[4,3-b]indol], in the data set on ARPE-19 cells [1], the “protection against cell death mediated by complement attack and oxidative stress” value (“protection against cell death mediated” below) was “no protection; also recorded: no protective activity”. As to `Cn1nccc1-c1ccc(Sc2cccc(C3(C(N)=O)CCOCC3)c2)cc1` [PF-4191834, 4-(3-(4-(1-Methyl-1H-pyrazol-5-yl)phenylthio)phenyl)-tetrahydro-2H-pyran-4-carboxamide], the “retinal structure / outer nuclear layer thickness” value in the data set on Balb/c mice [2] is “protected retinal structure and preserved photoreceptors”. For the same molecule, the “protection against loss of retinal ERG A-wave amplitude” value in the data set with Balb/c mice [3] was “protected against the loss of ERG A-wave amplitude; also recorded: protected against functional loss”. In the case of `N#C/C(=C\c1ccc(O)c(O)c1)C(=O)OCCc1cccs1` [2-TEDC], the IC50 is 90 nM at 5-lipoxygenase and 100 nM with ARPE-19 cells [1] (Homo sapiens, FIG. 7, read-out: I.C.50 of blocking cell death within the assay system). Besides, the “activity at the known I.C. 50 for 12 lipoxygenase” value in the data set on ARPE-19 cells [1] (concentration = known I.C.50 for 12 lipoxygenase) was “little activity”. Also, the “protection at the known I.C.50 for 15 lox” value in the data set with ARPE-19 cells [1] (concentration = known I.C.50 for 15 lox) was ~100%. Also, the “protection against cell death mediated” value in the data set on ARPE-19 cells [1] is reported as “dose dependently protected; also recorded: dose dependent protection”. Take `CC(C)(C)OO` [t-BH]: the “increase in cell death” value with ARPE-19 cells [4] is reported as 20-30%. Consider `OO` [H2O2], for which the “increase in cell death” value with ARPE-19 cells [4] is > 10 fold. For the molecule `CC(C)c1ccc2c(c1)c(SC(C)(C)C)c(CC(C)(C)C(=O)[O-])n2Cc1ccc(Cl)cc1.[Na+]` [MK886, 1-[(4-chlorophenyl)methyl]-3-[(1,1-dimethylethyl)thio]-α,α-dimethyl-5-(1-methylethyl)-1H-indole-2-propanoic acid, sodium salt], in the data set on ARPE-19 cells [1] (sodium salt), the “protection against cell death mediated” value is given as “dose dependently protected; also recorded: protects; also recorded: effectively blocked cell death in a dose dependent manner”.

Source of the values: patent publication US20110269807A1, “NOVEL TREATMENT FOR AGE RELATED MACULAR DEGENERATION AND OCULAR ISCHEMIC DISEASE ASSOCIATED WITH COMPLEMENT ACTIVATION BY TARGETING 5-LIPOXYGENASE” (ALLERGAN, INC., priority 2010, published 2011).
